Laboratory results: ChEMBL document CHEMBL5143693, “Design and synthesis of endocannabinoid enzyme inhibitors for ocular indications” (Bioorg Med Chem Lett, 2022)
Activity calls are given as the source filed them. The rule behind the calls is not given here.

Legend:
[1] = molecular target: T1, Fatty-acid amide hydrolase 1 (Homo sapiens, UniProt O00519); assay: Inhibition of FAAH (unknown origin) by fluorescence based method
T1 sequence (O00519 whole entry): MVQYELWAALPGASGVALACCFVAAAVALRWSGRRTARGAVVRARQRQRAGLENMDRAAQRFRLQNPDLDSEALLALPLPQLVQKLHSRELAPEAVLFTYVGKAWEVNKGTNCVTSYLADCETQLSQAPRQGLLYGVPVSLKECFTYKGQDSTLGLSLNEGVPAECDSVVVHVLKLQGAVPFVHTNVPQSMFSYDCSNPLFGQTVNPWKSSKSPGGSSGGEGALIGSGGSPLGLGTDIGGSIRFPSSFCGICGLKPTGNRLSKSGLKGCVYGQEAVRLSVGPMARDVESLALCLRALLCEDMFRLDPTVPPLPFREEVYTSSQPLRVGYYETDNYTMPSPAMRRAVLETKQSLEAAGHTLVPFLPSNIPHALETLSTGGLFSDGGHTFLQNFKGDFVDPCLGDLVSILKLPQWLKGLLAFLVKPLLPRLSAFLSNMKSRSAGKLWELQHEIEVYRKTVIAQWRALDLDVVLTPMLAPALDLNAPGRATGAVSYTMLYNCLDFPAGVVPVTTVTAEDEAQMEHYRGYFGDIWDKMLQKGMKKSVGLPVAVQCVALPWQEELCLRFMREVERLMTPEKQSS

[2] = Permeability of the compound by measuring lambda maximum incubated for 18 hrs by PAMPA method; assay type: ADME; settings: read-out: permeability
[3] = molecular target: T2, Monoglyceride lipase (Homo sapiens, UniProt Q99685); assay: Inhibition of MAGL (unknown origin) by fluorescence based method
T2 sequence (Q99685 whole entry): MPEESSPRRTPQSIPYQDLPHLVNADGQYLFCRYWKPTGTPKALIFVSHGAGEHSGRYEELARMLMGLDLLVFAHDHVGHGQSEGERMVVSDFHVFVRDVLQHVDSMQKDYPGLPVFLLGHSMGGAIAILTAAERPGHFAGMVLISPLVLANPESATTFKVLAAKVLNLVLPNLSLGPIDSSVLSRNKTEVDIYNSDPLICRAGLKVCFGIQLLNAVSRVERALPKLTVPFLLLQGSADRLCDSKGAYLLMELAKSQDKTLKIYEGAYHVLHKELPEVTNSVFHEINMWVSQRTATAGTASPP

[4] = molecular target: T3, Fatty-acid amide hydrolase 1 (Homo sapiens) (UniProt O00519); assay: Inhibition of recombinant human FAAH assessed as blockage of […] labelling at 100 uM by ABPP assay
T3 sequence (whole entry): T1 sequence (O00519 whole entry)

[5] = molecular target: T4, Monoglyceride lipase (Homo sapiens) (UniProt Q99685); assay: Inhibition of recombinant human MAGL assessed as blockage of […] labelling at 100 uM by ABPP assay
T4 sequence (whole entry): T2 sequence (Q99685 whole entry)

[6] = molecular target: T5, Fatty-acid amide hydrolase 1 (Rattus norvegicus) (UniProt P97612); assay: Inhibition of FAAH in rat eye homogenate assessed as blockage of […] labelling by ABPP assay; assay type: tissue-based
T5 sequence (whole entry): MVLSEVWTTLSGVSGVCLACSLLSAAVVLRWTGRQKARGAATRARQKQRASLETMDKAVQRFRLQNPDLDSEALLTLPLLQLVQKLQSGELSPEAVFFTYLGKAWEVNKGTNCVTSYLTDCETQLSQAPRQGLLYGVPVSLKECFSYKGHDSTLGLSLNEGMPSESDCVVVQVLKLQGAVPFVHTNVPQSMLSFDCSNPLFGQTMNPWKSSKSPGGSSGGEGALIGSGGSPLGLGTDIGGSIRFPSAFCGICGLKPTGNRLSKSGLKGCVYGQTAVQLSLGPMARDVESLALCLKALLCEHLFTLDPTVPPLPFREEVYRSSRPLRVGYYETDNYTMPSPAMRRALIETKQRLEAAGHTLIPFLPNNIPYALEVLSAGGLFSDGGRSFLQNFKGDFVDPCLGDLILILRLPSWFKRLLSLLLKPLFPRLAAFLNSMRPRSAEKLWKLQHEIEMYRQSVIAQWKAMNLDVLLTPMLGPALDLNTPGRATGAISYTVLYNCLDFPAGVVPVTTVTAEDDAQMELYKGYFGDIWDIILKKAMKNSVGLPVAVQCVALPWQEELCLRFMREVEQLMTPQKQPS

[7] = molecular target: T6, Monoglyceride lipase (Rattus norvegicus) (UniProt Q8R431); assay: Inhibition of MAGL in rat eye homogenate assessed as blockage of […] labelling by ABPP assay; assay type: tissue-based
T6 sequence (whole entry): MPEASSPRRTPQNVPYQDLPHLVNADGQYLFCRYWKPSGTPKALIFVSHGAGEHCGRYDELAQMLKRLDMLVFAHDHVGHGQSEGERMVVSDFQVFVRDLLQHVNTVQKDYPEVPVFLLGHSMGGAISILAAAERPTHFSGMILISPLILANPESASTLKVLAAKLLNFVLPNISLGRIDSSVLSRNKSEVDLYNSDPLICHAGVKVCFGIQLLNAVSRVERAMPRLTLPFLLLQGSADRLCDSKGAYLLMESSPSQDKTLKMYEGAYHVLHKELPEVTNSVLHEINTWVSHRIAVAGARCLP

[8] = molecular target: T7, Fatty-acid amide hydrolase 1 (Mus musculus, UniProt O08914); assay: Inhibition of mouse brain FAAH by competitive ABPP assay; assay type: tissue-based
T7 sequence (O08914 whole entry): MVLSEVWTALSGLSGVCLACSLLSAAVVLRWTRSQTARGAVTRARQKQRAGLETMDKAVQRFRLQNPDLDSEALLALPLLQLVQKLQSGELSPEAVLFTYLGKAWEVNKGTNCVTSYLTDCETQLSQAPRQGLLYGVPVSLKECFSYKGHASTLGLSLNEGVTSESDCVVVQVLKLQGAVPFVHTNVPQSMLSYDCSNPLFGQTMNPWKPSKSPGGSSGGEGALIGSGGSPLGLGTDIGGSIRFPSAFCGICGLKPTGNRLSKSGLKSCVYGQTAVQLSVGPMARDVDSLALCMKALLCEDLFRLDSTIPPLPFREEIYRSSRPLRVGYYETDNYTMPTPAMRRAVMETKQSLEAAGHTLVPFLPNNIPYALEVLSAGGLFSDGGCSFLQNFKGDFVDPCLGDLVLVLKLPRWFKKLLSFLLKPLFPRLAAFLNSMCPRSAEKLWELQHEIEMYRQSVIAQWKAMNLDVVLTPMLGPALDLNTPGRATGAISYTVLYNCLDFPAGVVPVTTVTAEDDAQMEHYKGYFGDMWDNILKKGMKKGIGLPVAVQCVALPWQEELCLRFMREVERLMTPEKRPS

SMILES	IC50 [1] [nM]	Papp at 18 h [2] [×10⁻⁶ cm/s]	IC50 [3] [nM]	inhibition [4]	inhibition [5]	inhibition [6]	inhibition [7]	IC50 [8] [nM]
O=C(Oc1ccc([N+](=O)[O-])cc1)N1CCN(S(=O)(=O)c2ccc(-c3ccccc3)cc2)CC1	437	0.19	–	–	–	–	–	–
O=C(Oc1ccc([N+](=O)[O-])cc1)N1CCN(S(=O)(=O)c2ccc(-c3ccc(Cl)c(Cl)c3)cc2)CC1	382	0.28	–	–	–	–	–	–
O=C(Oc1ccc([N+](=O)[O-])cc1)N1CCN(S(=O)(=O)c2ccc(Oc3ccccc3Cl)cc2)CC1	1150	0.27	–	–	–	–	–	–
O=C(Oc1ccc([N+](=O)[O-])cc1)N1CCN(S(=O)(=O)c2ccc(Oc3cccc(Cl)c3)cc2)CC1	380	0.23	–	–	–	–	–	–
O=C(Oc1ccc([N+](=O)[O-])cc1)N1CCN(S(=O)(=O)c2ccc(Oc3ncc(C(F)(F)F)cc3Cl)cc2)CC1	2950	0.23	–	–	–	–	–	–
CCCCc1ccc(S(=O)(=O)N2CCN(C(=O)Oc3ccc([N+](=O)[O-])cc3)CC2)cc1	179	0.26	759	Active	Active	Active	Active	–
O=C(Oc1ccc([N+](=O)[O-])cc1)N1CCN(S(=O)(=O)c2ccc(Oc3ccc(Cl)cc3)cc2)CC1	153	0.24	2060	–	–	–	–	–
O=C(Oc1ccc([N+](=O)[O-])cc1)N1CCN(S(=O)(=O)c2ccc(C3CCCCC3)cc2)CC1	333	0.24	–	–	–	–	–	–
O=C(Oc1ccc([N+](=O)[O-])cc1)N1CCN(S(=O)(=O)c2ccc3ccccc3c2)CC1	–	0.26	284	100%	100%	Active	Active	10.5
O=C(Oc1ccc([N+](=O)[O-])cc1)N1CCN(S(=O)(=O)c2ccc(Oc3ccc(Cl)c(Cl)c3)cc2)CC1	317	0.31	–	–	–	–	–	–
O=C(Oc1ccc([N+](=O)[O-])cc1)N1CCN(S(=O)(=O)c2ccc(Oc3ccccc3)cc2)CC1	322	0.23	–	–	–	–	–	–
